Read-outs that look alike come from different tables or passages of the source.
Experiments:
[1] = test system: HepG-2 cells (hepatocellular carcinoma); experiment: MTT anti-proliferative assay, HepG-2; assay type: cell-based, human; conditions: for IC50: mean ± SD of three separate experiments, read-out: In vitro Cytotoxicity IC50 HepG-2
Procedure: (§1) Anti-proliferative activities of the target compounds were assessed via the standard MTT method[38–40] against three cancer cell lines, namely, hepatocellular carcinoma (HepG-2), colorectal carcinoma (HCT-116), and human breast adenocarcinoma (MCF-7).
(§2) Anti-proliferative activity of the synthesised compounds was estimated using the MTT assay protocol[8]^,[38–40] as shown in Supplementary data.
(§3) 4.2.1. In vitro anti-proliferative activity against MCF-7, HepG-2 and HCT-116 The cells were cultured in RPMI-1640 medium supplemented with 10% fetal bovine serum (FBS), penicillin (100 unit /mL) and streptomycin sulphate (100µg/mL) at 37 °C in a 5% CO2 incubator.
(§4) Then, cells were dropped in 96-well plates at a density of 3-8 × 10^3 cells/well and incubated for two days in a 5% CO2 incubator at 37 °C. Then, the cells were treated with the synthesized compounds and the cell cultures were continued incubated for 24 h. However, Different concentrations of the compound under test (0.0, 5.0, 12.5, 25.0 and 50 mg/ml) were added to the cell monolayer. Then, (3-[4,5-dimethylthiazol-2-yl]- 2,5-diphenyltetrazolium bromide) MTT solution (20 µl, 5mg/mL) was added to each well and incubated for additional 4 h. The formed purple crystals of MTT-formazan were dissolved in 100 µl DMSO each well; the absorbance of each well was measured at 570 nm using a plate reader (EXL 800, USA). All of the compounds were tested three times. The relative cell viability in percentage was calculated.
(§5) The data represented the mean of three independent experiments in triplicate and were expressed as means ± SD. […]

[2] = test system: HCT-116 cells (colorectal carcinoma); experiment: MTT anti-proliferative assay, HCT-116; assay type: cell-based, human; conditions: for IC50: mean ± SD of three separate experiments, read-out: In vitro Cytotoxicity IC50 HCT-116
Procedure: as §1, with “(MCF-7). Doxorubicin was used in this test as a positive control.” for “(MCF-7).”
as §2, §3
as §4, with “calculated. The results for IC50 values of the active compounds are […]” for “calculated.”
as §5
(§6) of the cells could survive. […]

[3] = test system: MCF-7 cells (human breast adenocarcinoma); experiment: MTT anti-proliferative assay, MCF-7; assay type: cell-based; conditions: for IC50: mean ± SD of three separate experiments, read-out: In vitro Cytotoxicity IC50 MCF-7
Procedure: as §1, with “(MCF-7). Doxorubicin was used in this test as a positive control.” for “(MCF-7).”
as §2, §3
as §4, with “calculated. The results for IC50 values of the active compounds are […]” for “calculated.”
as §5, §6

[4] = test system: Calf thymus DNA; experiment: DNA intercalation assay (DNA/methyl green colorimetric assay); assay type: binding; conditions: three independent experiments
Procedure: as §5
4.2.2. DNA intercalation assay (DNA/methyl green colorimetric assay)
Affinity of some compounds for DNA-binding was examined in vitro using DNA/methyl green assay using doxorubicin as a positive control. In this test, a mixture of methyl green (20 mg) and Calf thymus DNA (10 mg) (Sigma– Aldrich) were suspended in 0.05 M TrisHCl buffer (100 mL, pH 7.5) containing 7.5 mM MgSO4. This mixture was stirred continuously for 24 h at 37 °C. Then, ethanolic solution of the test compounds was pitted into the wells of a 96-well microtiter tray at a concentration of 10, 100 and 1000 µM. The excess solvent was removed from each well under vacuum, with subsequent addition of 200 µL of the DNA/methyl green solution. The test samples were incubated for 24 h in dark at ambient temperature. After that, absorbance of each sample was determined at 642.5–645 nm. In this test, the methyl green dye reversibly binds to DNA to form persistent colored complex of DNA/methyl green. This color still stables at neutral pH. When the DNA intercalators were added, the methyl green was displaced from DNA with addition of H2O molecule to the dye resulting in formation of the colorless carbinol leading to a decrease in spectrophotometric absorbance. ΔA value (the difference between DNA/methyl green complex and free cabinol) provides the simplest means for detecting the DNA-binding affinity and relative binding strength. IC50′s were determined by linear regression of data plotted on a semi -log scale and the data were compared with doxorubicin as standard DNA intercalator . […]

[5] = target: T1, human Topo II (Homo sapiens, UniProt P11388); experiment: Topoisomerase II inhibitory activity (TopoGEN drug screening kit); assay type: biochemical; conditions: three independent experiments
T1 construct: purchased TopoGEN, Inc., Columbus
Procedure: The activity of topoisomerase II was determined according to the reported procedure described by Patra et al.[42]. […]
4.2.3. Measurement of topoisomerase II activity
Compounds (8a, 8b, 9a, 9c, 9d, 12a, and 12b) were further evaluated to assess their Topo II inhibitory activities. In this test, Topo II drug screening kit (TopoGEN, Inc., Columbus) was utilized to determine the Topo II activity. […] A typical enzyme […]
reaction contained a mixture of human Topo II (2 µL), substrate super coiled pHot1 DNA (0.25 µg), 50 µg/mL test compound (2 µL), and assay buffer (4 µL). The reaction started upon incubation of the mixture in 37 °C for 30 min. The reaction was terminated by addition of 10% sodium dodecylsulphate (2 µL) and proteinase K (50 µg/mL) at 37 °C for 15 min. followed by incubation for 15 min at 37 °C.
Then, the DNA was run on 1% agarose gel in BioRad gel electrophoresis system for 1–2 h followed by staining with GelRedTM stain for 2 h and destained for 15 min with TAE buffer. The gel was imaged Via BioRad’s Gel DocTMEZ system. Both supercoiled and linear strands DNA were incorporated in the gel as markers for DNA-Topo II intercalators. The results of IC50 values were calculated using the GraphPad Prism version 5.0. Each reaction was performed in duplicate, and at least three independent determinations of each IC50 were made.

[6] = ratio of IC50 values vs doxorubicin

T1 sequence (P11388 whole entry): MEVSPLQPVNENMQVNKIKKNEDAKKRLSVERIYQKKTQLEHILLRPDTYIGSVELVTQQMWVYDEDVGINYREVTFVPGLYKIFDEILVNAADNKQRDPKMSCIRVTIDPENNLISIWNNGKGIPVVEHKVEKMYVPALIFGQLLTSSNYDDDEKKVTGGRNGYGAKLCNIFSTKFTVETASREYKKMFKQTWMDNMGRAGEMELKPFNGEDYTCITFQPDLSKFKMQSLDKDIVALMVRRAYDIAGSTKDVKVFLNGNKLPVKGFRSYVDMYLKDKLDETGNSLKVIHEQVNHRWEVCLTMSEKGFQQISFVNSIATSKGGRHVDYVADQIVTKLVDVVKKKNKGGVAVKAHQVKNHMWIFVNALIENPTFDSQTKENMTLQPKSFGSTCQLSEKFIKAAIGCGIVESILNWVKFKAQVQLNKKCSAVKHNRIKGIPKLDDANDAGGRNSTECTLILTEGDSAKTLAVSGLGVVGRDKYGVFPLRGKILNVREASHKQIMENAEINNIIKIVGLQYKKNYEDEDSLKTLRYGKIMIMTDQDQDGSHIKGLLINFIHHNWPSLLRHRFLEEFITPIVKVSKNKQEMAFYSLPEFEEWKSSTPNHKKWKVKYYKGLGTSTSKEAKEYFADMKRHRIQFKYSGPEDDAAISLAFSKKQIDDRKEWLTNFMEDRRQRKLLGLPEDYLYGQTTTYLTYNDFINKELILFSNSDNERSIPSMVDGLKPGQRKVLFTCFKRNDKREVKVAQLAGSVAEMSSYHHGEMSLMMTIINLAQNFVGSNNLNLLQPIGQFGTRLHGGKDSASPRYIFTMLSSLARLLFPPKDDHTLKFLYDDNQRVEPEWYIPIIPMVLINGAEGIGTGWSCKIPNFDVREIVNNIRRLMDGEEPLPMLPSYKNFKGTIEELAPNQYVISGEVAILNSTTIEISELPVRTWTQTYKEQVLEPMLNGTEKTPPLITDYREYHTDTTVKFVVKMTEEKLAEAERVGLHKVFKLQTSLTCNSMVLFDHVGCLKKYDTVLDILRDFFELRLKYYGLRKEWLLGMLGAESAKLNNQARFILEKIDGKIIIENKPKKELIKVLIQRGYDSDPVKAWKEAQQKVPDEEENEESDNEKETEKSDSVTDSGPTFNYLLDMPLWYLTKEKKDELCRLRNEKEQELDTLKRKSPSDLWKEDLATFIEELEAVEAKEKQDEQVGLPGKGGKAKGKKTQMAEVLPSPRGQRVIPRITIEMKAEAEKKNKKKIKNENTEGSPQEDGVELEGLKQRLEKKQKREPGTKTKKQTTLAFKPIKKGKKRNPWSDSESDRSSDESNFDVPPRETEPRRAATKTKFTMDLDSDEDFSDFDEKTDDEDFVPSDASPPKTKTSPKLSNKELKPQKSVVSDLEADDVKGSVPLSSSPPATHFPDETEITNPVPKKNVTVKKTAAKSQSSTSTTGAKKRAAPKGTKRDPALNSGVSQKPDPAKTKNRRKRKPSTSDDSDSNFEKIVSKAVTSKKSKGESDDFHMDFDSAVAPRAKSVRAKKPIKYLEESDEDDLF

Row | SMILES | IC50 [4] [µM] | IC50 [5] [µM] | IC50 ([1]; Homo sapiens, HepG2, MTT) [µM] | IC50 ([1]; MTT) [µM] | IC50 ([2]; Homo sapiens, HCT-116, MTT) [µM] | IC50 ([2]; MTT) [µM] | IC50 ([3]; Homo sapiens, MCF7, MTT) [µM] | IC50 ([3]; MTT) [µM] | times more active than doxorubicin, HepG2 [1, 6] | times more active than doxorubicin, HCT-116 [2, 6] [times] | times more active than doxorubicin, MCF-7 [3, 6] [times]
1 | CCCc1nnc2c3ccccc3c(NNC(=O)NC3CCCCC3)nn12 [Compound 7a, N-Cyclohexyl-2–(3-propyl-[1,2, 4]triazolo[3,4-a]phthalazin-6-yl)hydrazine-1-carboxamide] | 37.1 ± 2 |  | 24.9 ± 0.8 |  | 23.8 ± 0.81 |  | 19.4 ± 0.62 |  |  |  | 
2 | CCCc1nnc2c3ccccc3c(NNC(=O)Nc3ccccc3)nn12 [Compound 7b, N-Phenyl-2–(3-propyl-[1,2, 4]triazolo[3,4-a]phthalazin-6-yl)hydrazine-1-carboxamide] | 36.6 ± 1.82 |  | 45 ± 1.1 |  | 48.6 ± 1.6 |  | 50.7 ± 1.55 |  |  |  | 
3 | CCCc1nnc2c3ccccc3c(NNC(=S)NCC)nn12 [Compound 8a, N-Ethyl-2–(3-propyl-[1,2, 4]triazolo[3,4-a]phthalazin-6-yl)hydrazine-1-carbothioamide] | 29.6 ± 1.41 | 22.3 ± 2 | 28.9 ± 0.67 |  | 25 ± 0.7 |  | 16.5 ± 0.43 |  |  |  | 
4 | CCCc1nnc2c3ccccc3c(NN=Cc3ccc(Cl)cc3)nn12 [Compound 9a, 6-[2–(4-Chlorobenzylidene)hydrazineyl]-3-propyl-[1,2, 4]triazolo[3,4-a]phthalazine] | 43.8 ± 2.22 | 13.7 | 25.2 ± 0.7 |  | 36.3 ± 1.1 |  | 45.5 ± 1.22 |  |  |  | 
5 | CCCc1nnc2c3ccccc3c(NNC(=S)NC3CCCCC3)nn12 [Compound 8b, N-Cyclohexyl-2–(3-propyl-[1,2, 4]triazolo[3,4-a]phthalazin-6-yl)hydrazine-1-carbothioamide] | 34.6 ± 1.1 | 8.91 ± 0.77 | 10.9 to 14.9 | 10.9 ± 0.34 | 10.9 to 14.9 | 13.8 ± 0.44 | 10.9 to 14.9 | 12.5 ± 0.32 |  |  | 
6 | CCCc1nnc2c3ccccc3c(NN=Cc3ccc(F)cc3)nn12 [Compound 9b, 6-[2–(4-Fluorobenzylidene)hydrazineyl]-3-propyl-[1,2, 4]triazolo[3,4-a]phthalazine] | 49.9 ± 2.53 |  | 63.9 ± 1.02 |  | 61.7 ± 1.89 |  | 36 ± 0.98 |  |  |  | 
7 | CCCc1nnc2c3ccccc3c3nnc(SCC(N)=O)n3n12 [Compound 15, 2-[(6-Propylbis([1,2, 4]triazolo)[3,4-a:4',3'-c]phthalazin-3-yl)thio]acetamide] | 71.2 ± 3.11 |  | 38.6 ± 1 |  | 53.5 ± 1.55 |  | 26.2 ± 0.77 |  |  |  | 

Second part, led by results:

Row | IC50 [4] [µM] | IC50 [5] [µM] | SMILES | IC50 ([1]; Homo sapiens, HepG2, MTT) [µM] | IC50 ([1]; MTT) [µM] | IC50 ([2]; Homo sapiens, HCT-116, MTT) [µM] | IC50 ([2]; MTT) [µM] | IC50 ([3]; Homo sapiens, MCF7, MTT) [µM] | IC50 ([3]; MTT) [µM] | times more active than doxorubicin, HepG2 [1, 6] | times more active than doxorubicin, HCT-116 [2, 6] [times] | times more active than doxorubicin, MCF-7 [3, 6] [times]
8 | 34.4 ± 2.8 | 13.7 ± 1.02 | CCCc1nnc2c3ccccc3c3nnc(SCC(=O)Nc4ccc([N+](=O)[O-])cc4)n3n12 [Compound 14b, N-(4-Nitrophenyl)-2-[(6-propylbis([1,2, 4]triazolo)[3,4-a:4',3'-c]phthalazin-3-yl)thio]acetamide] | 10.9 to 14.9 | 13.4 ± 0.4 | 10.9 to 14.9 | 12.6 ± 0.45 | 10.9 to 14.9 | 14.9 ± 0.55 |  |  | 
9 |  | 21.4 ± 1.9 | CCCc1nnc2c3ccccc3c(NN=Cc3ccc(O)cc3)nn12 [Compound 9c, 4-[(2–(3-Propyl-[1,2, 4]triazolo[3,4-a]phthalazin-6-yl)hydrazineylidene)methyl]-phenol] | 56.3 ± 1.73 |  | 78.5 ± 2.04 |  | 57.8 ± 1.56 |  |  |  | 
10 | 46.3 ± 2.3 |  | CCCc1nnc2c3ccccc3c3nnc(SCC(=O)Nc4ccc(S(N)(=O)=O)cc4)n3n12 [Compound 14c, 2-[(6-Propylbis([1,2, 4]triazolo)[3,4-a:4',3'-c]phthalazin-3-yl)thio]-N-(4-sulfamoyl-phenyl)acetamide] | 24.8 ± 0.88 |  | 30.99 ± 0.11 |  | 20.6 ± 0.88 |  |  |  | 
11 | 28.7 ± 1.71 | 7.64 ± 0.66 | CCCc1nnc2c3ccccc3c3nnc(SCC(=O)Nc4ccc(C(=O)O)cc4)n3n12 [Compound 14a, 4-[2-((6-Propylbis([1,2, 4]triazolo)[3,4-a:4',3'-c]phthalazin-3-yl)thio)acetamido]benzoic acid] | 5.65 ± 0.25 |  | 4.35 ± 0.19 |  | 4.36 ± 0.2 |  | about 1.46 times | ~2.28 | ~1.75
